Reference: PubChem BioAssay AID248 (DTP/NCI, 2004)
“And” between values parts separate entries of the source, which are not always exact repeats. Equal entries are not always repeated. Toxic doses and inconclusive results are not listed. Cut-off read from the data, not from the text of the source: active = T/C of 150% or more; inactive = T/C below 125%. Square brackets hold non-standard residues; d marks the D form. Peptide text beside a SMILES is read from it. ξ: configuration not given here. ξK = NCCCCC(N)C(=O)O

Test system: L1210 leukemia ip in BDF1 mice, survival T/C
Experiment: NCI In Vivo Anticancer Drug Screen. Data for tumor model L1210 Leukemia (intraperitoneal) in B6D2F1 (BDF1) mice
Settings: endpoint: mean survival time, higher = longer survival
Summary of the method: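 Each compound was tested against a transplantable tumor grown in mice. The endpoint was survival, with treated animals benchmarked against vehicle controls as a simple ratio.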

[1] = dose: 100.0 mg/kg/injection, schedule: Q01DX001 (ip), vehicle: saline
[2] = dose: 200.0 mg/kg/injection, schedule: Q01DX001 (ip), vehicle: saline
[3] = dose: 400.0 mg/kg/injection, schedule: Q01DX001 (ip), vehicle: saline
[4] = dose: 100.0 mg/kg/injection, schedule: Q04DX003 (ip), vehicle: Klucel (hydroxypropylcellulose) (HPC)
[5] = dose: 200.0 mg/kg/injection, schedule: Q04DX003 (ip), vehicle: Klucel (hydroxypropylcellulose) (HPC)
[6] = dose: 400.0 mg/kg/injection, schedule: Q04DX003 (ip), vehicle: Klucel (hydroxypropylcellulose) (HPC)
[7] = dose: 100.0 mg/kg/injection, schedule: Q04DX003 (ip), vehicle: saline with Tween-80
[8] = dose: 200.0 mg/kg/injection, schedule: Q04DX003 (ip), vehicle: saline with Tween-80
[9] = dose: 400.0 mg/kg/injection, schedule: Q04DX003 (ip), vehicle: saline with Tween-80
[10] = dose: 100.0 mg/kg/injection, schedule: Q01DX009 (ip), vehicle: saline with Tween-80
[11] = dose: 200.0 mg/kg/injection, schedule: Q01DX009 (ip), vehicle: saline with Tween-80
[12] = dose: 400.0 mg/kg/injection, schedule: Q01DX009 (ip), vehicle: saline with Tween-80
[13] = dose: 25.0 mg/kg/injection, schedule: Q04DX003 (ip), vehicle: saline
[14] = dose: 50.0 mg/kg/injection, schedule: Q01DX009 (ip), vehicle: saline
[15] = dose: 50.0 mg/kg/injection, schedule: Q04DX003 (ip), vehicle: saline
[16] = dose: 100.0 mg/kg/injection, schedule: Q01DX009 (ip), vehicle: saline
[17] = dose: 100.0 mg/kg/injection, schedule: Q04DX003 (ip), vehicle: saline
[18] = dose: 12.5 mg/kg/injection, schedule: Q01DX009 (ip), vehicle: saline
[19] = dose: 25.0 mg/kg/injection, schedule: Q01DX009 (ip), vehicle: saline
[20] = dose: 200.0 mg/kg/injection, schedule: Q04DX003 (ip), vehicle: saline
[21] = dose: 100.0 mg/kg/injection, schedule: Q01DX001 (ip), vehicle: carboxymethylcellulose (CMC)
[22] = dose: 200.0 mg/kg/injection, schedule: Q01DX001 (ip), vehicle: carboxymethylcellulose (CMC)
[23] = dose: 200.0 mg/kg/injection, schedule: Q01DX009 (ip), vehicle: saline
[24] = dose: 100.0 mg/kg/injection, schedule: Q04DX002 (ip), vehicle: Klucel (hydroxypropylcellulose) (HPC)
[25] = dose: 200.0 mg/kg/injection, schedule: Q04DX002 (ip), vehicle: Klucel (hydroxypropylcellulose) (HPC)

Measured: T/C

COc1cc(/C=N/Nc2nnc(N/N=C/c3cc(I)c(O)c(OC)c3)c3ccccc23)cc(I)c1O
inactive: dose: 50.0 mg/kg/injection, schedule: Q01DX001 (ip), vehicle: saline 95 % of control | [1] 95 % of control | [2] 101 % of control | [3] 97 % of control

CC1=C(C)Cc2c(-c3ccc(Cl)cc3)oc(-c3ccc(Cl)cc3)c2C1
inactive: [4] 100 % of control | [5] 97 % of control | [6] 94 % of control

CCCCCCCCCCCCCCCCOc1ccccc1/C=N/O
inactive: [7] 94 % of control | [8] 95 % of control | [9] 90 % of control

O=[N+]([O-])c1ccc(S(=O)(=O)Nc2ccccc2-c2ccccc2)cc1
inactive: [10] 96 % of control | [7] 91 % of control | [11] 98 % of control | [8] 91 % of control | [12] 96 % of control | [9] 86 % of control

CN(C(=O)CCCO)c1cc([N+](=O)[O-])ccc1OCc1ccccc1
inactive: [10] 93 % of control | [7] 92 % of control | [11] 93 % of control | [8] 101 % of control | [12] 90 % of control | [9] 92 % of control

CC(C)P(=O)(CCP(=O)(c1ccccc1)c1ccccc1)c1ccccc1 (stereo not given)
inactive: dose: 50.0 mg/kg/injection, schedule: Q04DX002 (ip), vehicle: saline with Tween-80 106 % of control | dose: 100.0 mg/kg/injection, schedule: Q04DX002 (ip), vehicle: saline with Tween-80 100 % of control | dose: 200.0 mg/kg/injection, schedule: Q04DX002 (ip), vehicle: saline with Tween-80 87 % of control

CCOC(=O)/C(C#N)=N\O
inactive: [13] 98 % of control | [14] 111 % of control | [15] 111 % of control | [16] 90 % of control | [17] 104 % of control and 88 % of control

NC(CSC(c1ccccc1)(c1ccccc1)c1ccc2ccccc2c1)C(=O)O (stereo not given)
active: dose: 3.13 mg/kg/injection, schedule: Q01DX009 (ip), vehicle: saline 159 % of control | dose: 6.25 mg/kg/injection, schedule: Q01DX009 (ip), vehicle: saline 187 % of control | dose: 6.3 mg/kg/injection, schedule: Q01DX009 (ip), vehicle: other 166 % of control | [19] 225 % of control
inactive: dose: 0.74 mg/kg/injection, schedule: Q01DX009 (ip), vehicle: saline 124 % of control | [18] 108 % of control | dose: 25.0 mg/kg/injection, schedule: Q01DX009 (ip), vehicle: other 94 % of control | [14] 103 % of control

CN1CCC2(CC1)SSC1(CCN(C)CC1)S2
inactive: [17] 98 % of control | [20] 98 % of control

COc1cc([N+](=O)[O-])ccc1N
inactive: dose: 100.0 mg/kg/injection, schedule: Q01DX009 (ip), vehicle: saline sonified 116 % of control | [7] 105 % of control | dose: 200.0 mg/kg/injection, schedule: Q01DX009 (ip), vehicle: saline sonified 95 % of control | [8] 105 % of control | dose: 400.0 mg/kg/injection, schedule: Q01DX009 (ip), vehicle: saline sonified 104 % of control | [9] 115 % of control

O=C(O)CCCc1cccc2ccccc12
inactive: dose: 37.0 mg/kg/injection, schedule: Q01DX009 (ip), vehicle: gum acacia 97 % of control | dose: 75.0 mg/kg/injection, schedule: Q01DX009 (ip), vehicle: gum acacia 103 % of control | dose: 100.0 mg/kg/injection, schedule: Q04DX003 (ip), vehicle: gum acacia 97 % of control | dose: 150.0 mg/kg/injection, schedule: Q01DX009 (ip), vehicle: gum acacia 92 % of control | dose: 200.0 mg/kg/injection, schedule: Q04DX003 (ip), vehicle: gum acacia 86 % of control

O=C(O)c1cc([N+](=O)[O-])ccc1O
inactive: [21] 95 % of control | dose: 100.0 mg/kg/injection, schedule: Q04DX002 (ip), vehicle: saline 101 % of control | [22] 95 % of control | dose: 200.0 mg/kg/injection, schedule: Q04DX002 (ip), vehicle: saline 101 % of control | dose: 400.0 mg/kg/injection, schedule: Q04DX002 (ip), vehicle: saline 101 % of control

COc1ccc(C(=O)OC(=O)c2ccc(OC)cc2)cc1
inactive: dose: 50.0 mg/kg/injection, schedule: Q01DX001 (ip), vehicle: carboxymethylcellulose (CMC) 110 % of control | [21] 104 % of control | [10] 113 % of control | [7] 102 % of control | [22] 108 % of control | [11] 116 % of control | [8] 102 % of control | dose: 400.0 mg/kg/injection, schedule: Q01DX001 (ip), vehicle: carboxymethylcellulose (CMC) 112 % of control | [12] 110 % of control | [9] 101 % of control

CCOC(=O)CCCC1(C)C(C#N)C(=O)NC(=O)C1C#N (stereo not given)
inactive: [16] 96 % of control | [17] 112 % of control | [23] 98 % of control | [20] 102 % of control | dose: 400.0 mg/kg/injection, schedule: Q01DX009 (ip), vehicle: saline 90 % of control | dose: 400.0 mg/kg/injection, schedule: Q04DX003 (ip), vehicle: saline 94 % of control

Oc1c(-c2ccccc2)c(-c2ccccc2)cc(-c2ccccc2)c1-c1ccccc1
inactive: dose: 100.0 mg/kg/injection, schedule: Q01DX001 (ip), vehicle: saline with Tween-80 102 % of control | dose: 200.0 mg/kg/injection, schedule: Q01DX001 (ip), vehicle: saline with Tween-80 94 % of control | dose: 400.0 mg/kg/injection, schedule: Q01DX001 (ip), vehicle: saline with Tween-80 88 % of control

CCCCCCCCCCCCCCC(=O)O
inactive: dose: 100.0 mg/kg/injection, schedule: Q01DX001 (ip), vehicle: Klucel (hydroxypropylcellulose) (HPC) 108 % of control | dose: 200.0 mg/kg/injection, schedule: Q01DX001 (ip), vehicle: Klucel (hydroxypropylcellulose) (HPC) 93 % of control | dose: 400.0 mg/kg/injection, schedule: Q01DX001 (ip), vehicle: Klucel (hydroxypropylcellulose) (HPC) 93 % of control

CCC1CN2C(=N1)c1ccccc1-c1cc([N+](=O)[O-])ccc12 (stereo not given)
inactive: dose: 100.0 mg/kg/injection, schedule: Q01DX009 (ip), vehicle: Klucel (hydroxypropylcellulose) (HPC) 101 % of control | [4] 99 % of control | dose: 200.0 mg/kg/injection, schedule: Q01DX009 (ip), vehicle: Klucel (hydroxypropylcellulose) (HPC) 104 % of control | [5] 106 % of control | dose: 400.0 mg/kg/injection, schedule: Q01DX009 (ip), vehicle: Klucel (hydroxypropylcellulose) (HPC) 95 % of control | [6] 97 % of control

O=C1C=CC(=O)N1Cc1ccncc1
inactive: [1] 101 % of control | [2] 95 % of control | [3] 95 % of control

NCCCCC(NC(=O)CN)C(=O)O (stereo not given) (H-Gly-[ξK]-OH)
inactive: [1] 101 % of control | [2] 103 % of control | [3] 95 % of control

C1=CCNCC1
inactive: [1] 101 % of control | [2] 98 % of control | [3] 103 % of control

CCCC1(CCC)CN(C)C1=O
inactive: [18] 97 % of control | [19] 88 % of control | [13] 104 % of control | [14] 100 % of control | [15] 98 % of control | [16] 102 % of control | [17] 98 % of control | [23] 102 % of control | [20] 98 % of control

CCCCCCCCCCCCCCCC(=O)Nc1ccc(C)cc1C
inactive: [24] 96 % of control | [25] 93 % of control | dose: 400.0 mg/kg/injection, schedule: Q04DX002 (ip), vehicle: Klucel (hydroxypropylcellulose) (HPC) 90 % of control

Nc1ccccc1SSc1ccccc1N
inactive: [24] 86 % of control | [25] 86 % of control

CCCCC(CC)CP(=O)(CC(CC)CCCC)CC(CC)CCCC (stereo not given)
inactive: dose: 55.0 mg/kg/injection, schedule: Q01DX Z (ip), vehicle: methylcellulose (MC) 104 % of control | dose: 83.0 mg/kg/injection, schedule: Q01DX Z (ip), vehicle: methylcellulose (MC) 100 % of control | dose: 125.0 mg/kg/injection, schedule: Q01DX Z (ip), vehicle: methylcellulose (MC) 108 % of control
